According to BindingDB's records for PubMed 33314936 (n/a, 2020):

Assay: Agonist activity at human PGI2 receptor assessed as inhibition of ADP-induced platelet aggregation

CC(C)N(CCCCOCC(=O)NS(C)(=O)=O)c1cnc(-c2ccccc2)c(-c2ccccc2)n1 [ACT-293987]
IC50: 6.4 µM
